The structures appear in SMILES notation. “And” between values parts separate entries of the source, which are not always exact repeats. Equal entries are not always repeated. Where two headings read alike, the source gives them in different places.

The term EC50 denotes the concentration needed to bring the measured effect to its halfway point. By IC90 is commonly meant the point of the concentration-response curve where the effect stands at 90%.

Experiment [1] deals with Junin virus. Briefly: microbe, parasite or virus in culture. The format is cell-based.
Experiment [2] concerns LCMV. Briefly: microbe, parasite or virus in culture. Type of experiment: cell-based, lymphocytic choriomeningitis virus (LCMV).
For experiment [3], the system named is Lassa virus (LF2384 strain). Briefly: microbe, parasite or virus in culture. The following applies: Mammarenavirus lassaense, Vero, 72 h, read-out: Log10 of IC90 (nM) (converted). The format is cell-based.
Experiment [4] concerns Lassa virus (Josiah strain). Type of experiment: cell-based.
The mark [5] stands for this setting: Mammarenavirus juninense, HEK-293T, 96 h.
Where [6] appears, read: Mammarenavirus choriomeningitidis, KB, 96 h.

As to `CCN1CN(C2c3ccccc3CCc3ccccc32)n2cc(C(=O)O)c(=O)c(O)c2C1=O` [Compound I-078], the EC50 in experiment [1] (setting [5]) amounted to 3.3 nM; in experiment [2] (setting [6]), 6.2 nM. Further, the IC90 in experiment [3] was 3.14 nM.
For `NC(=O)c1ncn([C@@H]2O[C@H](CO)[C@@H](O)[C@H]2O)n1` [Ribavirin, reference compound], the “Virus infectivity titer (48 h.p.i., PFU/ml)” value in experiment [4] was 9 × 10^4 PFU/ml and 6 × 10^6 PFU/ml and 5 × 10^6 PFU/ml.
With `O=C(O)c1cn2c(c(O)c1=O)C(=O)N(CC1CC1)CN2C1c2ccccc2CSc2ccccc21` (stereo not shown) [III-013], the EC50 worked out at 3.7 nM in experiment [1] and 3.3 nM in experiment [2].
On to `CCCCCN1CN(C2c3ccccc3CCc3ccccc32)n2cc(C(=O)O)c(=O)c(O)c2C1=O` [III-006], for which the EC50 in experiment [1] (setting [5]) came to 9.4 nM; in experiment [2] (setting [6]), 25 nM.
For `C#CCN1C[C@H](C(c2ccccc2)c2ccccc2)n2cc(C(=O)O)c(=O)c(O)c2C1=O` [Compound I-040] the same measures were 173 nM and 44 nM.
Consider `CON(C)C(=O)c1cn2c(c(O)c1=O)C(=O)N(C(C)C)CN2C1c2ccccc2CCc2ccccc21` [III-004], for which the EC50 in experiment [1] (setting [5]) came to 21 nM; in experiment [2] (setting [6]), 27 nM.
Taken in the same sequence, the figures for `COCCN1CN(C2c3ccccc3CCc3ccccc32)n2cc(C(=O)O)c(=O)c(O)c2C1=O` [Compound I-079] were 5 nM and 5.3 nM.
Taken in the same sequence, the figures for `CN1C(=O)c2c(O)c(=O)c(C(=O)O)cn2C(C(c2ccccc2)c2ccccc2)N1C` (stereo not shown) [Compound I-009] were 405 nM and 143 nM.
For `O=C(O)c1cn2c(c(O)c1=O)C(=O)N1CCCO[C@@H]1[C@@H]2Cc1ccccc1` [Compound I-054] the same measures were 1620 nM and 1960 nM.
Consider `O=C(O)c1cn2c(c(O)c1=O)C(=O)N(C(C1CC1)C1CC1)CN2C1c2cccc(F)c2CCc2c(F)cccc21` [III-036], for which the 50% effective concentration (EC50) was determined as 5.1 nM in experiment [1] (setting [5]) and 6.3 nM in experiment [2] (setting [6]).
Regarding `Cc1ccc2c(c1)CCc1cc(C)ccc1C2N1CN(C(C)C)C(=O)c2c(O)c(=O)c(C(=O)O)cn21` [Compound I-076], the values for the EC50 in experiment [1] (setting [5]) and in experiment [2] (setting [6]) were 34 nM and 13 nM, respectively.
`O=C(O)c1cn2c(c(O)c1=O)C(=O)N(Cc1ccc(F)cc1F)CN2C1c2ccccc2CCc2ccccc21` [Compound I-081]: the EC50 in experiment [1] (setting [5]) is 6.1 nM; in experiment [2] (setting [6]), 24 nM.
Taken in the same sequence, the figures for `CN1C[C@H](C(c2ccccc2)c2ccccc2)n2cc(C(=O)O)c(=O)c(O)c2C1=O` [Compound I-046] were 382 nM and 69 nM.
Taken in the same sequence, the figures for `CC(C)N1CN(Cc2ccccc2-c2ccccc2)n2cc(C(=O)O)c(=O)c(O)c2C1=O` [Compound I-080] were 437 nM and 499 nM.
Consider `O=C(O)c1cn2c(c(O)c1=O)C(=O)N(C(C1CC1)C1CC1)CN2C1c2ccccc2CSc2ccccc21` (stereo not shown) [III-028], for which the results for the EC50 in experiment [1] and in experiment [2] were 2.4 nM and 2.1 nM, respectively.
As to `CC(C)N1CN(C2c3ccccc3CCc3ccccc32)n2cc(C(N)=O)c(=O)c(O)c2C1=O` [III-003], the EC50 in experiment [1] (setting [5]) was 302 nM; in experiment [2] (setting [6]), 676 nM.
In the case of `CC(C)N1CN(C2c3ccccc3CCc3ccccc32)n2cc(C(=O)O)c(=O)c(O)c2C1=O` [Compound I-021], in experiment [1] (setting [5]), a half-maximal response (EC50) required 8.2 nM. Moreover, in experiment [4], the “Lassa virus proliferation inhibitory effect compared with control compound Ribavirin” value was “significantly stronger Lassa virus proliferation inhibitory effect than the control compound Ribavirin”; the “Virus infectivity titer (24 h.p.i., PFU/ml)” value is 5 × 10^4 PFU/ml and <10 PFU/ml; the “Virus infectivity titer (48 h.p.i., PFU/ml)” value was 5 × 10^6 PFU/ml and 5 × 10^3 PFU/ml. Further, the EC50 in experiment [2] (setting [6]) came out at 2 nM. Further, the IC90 in experiment [3] was 3.1 nM.
With `O=C(O)c1cn2c(c(O)c1=O)C(=O)N(CCc1ccc(F)cc1F)CN2C1c2ccccc2CCc2ccccc21` [III-011], the EC50 came out at 97 nM in experiment [1] (setting [5]) and 55 nM in experiment [2] (setting [6]).
Turning to `O=C(O)c1cn2c(c(O)c1=O)C(=O)N(CC1CC1)CN2C1c2ccccc2CSc2ccccc21` (stereo not shown) [III-014], the half-maximal effective concentration (EC50) in experiment [1] is 276 nM; in experiment [2], 130 nM.
For the compound `CC(C)N1CN(C2c3ccccc3CSc3ccccc32)n2cc(C(=O)O)c(=O)c(O)c2C1=O` (stereo not shown) [III-021], the values for the EC50 in experiment [1] and in experiment [2] were 6.2 nM and 4.9 nM, respectively.
In the case of `COCCN1C(=O)c2c(O)c(=O)c(C(=O)O)cn2N(C2c3ccccc3CCc3ccccc32)C1CCSC` (stereo not shown) [Compound I-022], the values for the EC50 in experiment [1] (setting [5]) and in experiment [2] (setting [6]) were 10 nM and 1.6 nM, respectively.
For `O=C(O)c1cn2c(c(O)c1=O)C(=O)N1CCOC[C@H]1N2[C@@H]1c2ccccc2SCc2c1ccc(F)c2F` [Compound I-001], the EC50 in experiment [1] (read-out: EC50) was 111 nM; in experiment [2] (read-out: EC50), 115 nM.
Consider `Cc1cccc2c1CCc1c(C)cccc1C2N1CN(CC2CC2)C(=O)c2c(O)c(=O)c(C(=O)O)cn21` [III-031], for which the EC50 was found to be 4.5 nM in experiment [1] (setting [5]) and 4.1 nM in experiment [2] (setting [6]).
For `CCN1CN(C(c2ccccc2)c2ccccc2)n2cc(C(=O)O)c(=O)c(O)c2C1=O` [Compound I-005] the same measures were 28 nM and 53 nM.
Take `CCN1CN(Cc2ccc(-c3ccccc3)cc2)n2cc(C(=O)O)c(=O)c(O)c2C1=O` [Compound I-010]: the EC50 was 579 nM in experiment [1] (setting [5]) and 328 nM in experiment [2] (setting [6]).
With `CC1Nn2cc(C(=O)O)c(=O)c(O)c2C(=O)N1C` (stereo not shown) [Compound I-011], the EC50 came to 1670 nM in experiment [1] (setting [5]) and 1930 nM in experiment [2] (setting [6]).
For `CC(C)N1CN(C2c3ccccc3CSc3ccccc32)n2cc(C(=O)O)c(=O)c(O)c2C1=O` (stereo not shown) [Compound I-019], the EC50 worked out at 6.9 nM in experiment [1] and 2.2 nM in experiment [2].
Turning to `O=C(O)c1cn2c(c(O)c1=O)C(=O)N(CC1CC1)CN2C1c2ccccc2CCc2ccccc21` [II-003], the EC50 in experiment [1] (setting [5]) turned out to be 6.7 nM; in experiment [2] (setting [6]) it was 8 nM. Moreover, the IC90 in experiment [3] is 2.53 nM.
Consider `Cc1ccc2c(c1)C(N1CN(C(C)C)C(=O)c3c(O)c(=O)c(C(=O)O)cn31)c1cc(C)ccc1CC2` [III-024], for which the EC50 in experiment [1] (setting [5]) was > 200 nM; in experiment [2] (setting [6]) it was 83 nM.
With `CCOCCN1C[C@H](C(c2ccccc2)c2ccccc2)n2cc(C(=O)O)c(=O)c(O)c2C1=O` [Compound I-038], the EC50 in experiment [1] (setting [5]) amounted to 148 nM; in experiment [2] (setting [6]) it was 28 nM.
For `CC(C)N1C[C@H](C(c2ccccc2)c2ccccc2)n2cc(C(=O)O)c(=O)c(O)c2C1=O` [Compound I-037] the same measures were 82 nM and 24 nM.
For `O=C(O)c1cn2c(c(O)c1=O)C(=O)N(CC1CCOCC1)C[C@@H]2C(c1ccccc1)c1ccccc1` [Compound I-034] the same measures were 68 nM and 32 nM.
As for `O=C(O)c1cn2c(c(O)c1=O)C(=O)N(CC1CC1)CN2C(c1ccc(-c2ccccc2)cc1)c1ccc(-c2ccccc2)cc1` [III-018], the EC50 in experiment [1] (setting [5]) turned out to be 173 nM; in experiment [2] (setting [6]), 399 nM.
Taken in the same sequence, the figures for `COCCCN1C[C@H](C(c2ccccc2)c2ccccc2)n2cc(C(=O)O)c(=O)c(O)c2C1=O` [Compound I-044] were 354 nM and 40 nM.
Taken in the same sequence, the figures for `COCCN1C[C@H](Cc2ccccc2)n2cc(C(=O)O)c(=O)c(O)c2C1=O` [Compound I-057] were 2180 nM and 225 nM.
For `O=C(O)c1cn2c(c(O)c1=O)C(=O)N(CC1CCC1)CN2C1c2ccccc2CCc2ccccc21` [III-016] the same measures were 12 nM and 7.3 nM.
Regarding `O=C(O)c1cn2c(c(O)c1=O)C(=O)N(Cc1ccccn1)C[C@@H]2C(c1ccccc1)c1ccccc1` [Compound I-025], the EC50 came to 13 nM in experiment [1] (setting [5]) and 5 nM in experiment [2] (setting [6]).
For `CN1CN(C(c2ccccc2)c2ccccc2)n2cc(C(=O)O)c(=O)c(O)c2C1=O` [Compound I-008], the EC50 in experiment [1] (setting [5]) stood at 239 nM; in experiment [2] (setting [6]) it was 205 nM.
For `COCCN1C[C@H](C(c2ccccc2)c2ccccc2)n2cc(C(=O)O)c(=O)c(O)c2C1=O` [Compound I-039] the same measures were 240 nM and 17 nM.
For `O=C(O)c1cn2c(c(O)c1=O)C(=O)N(CC1CC1)CN2C(c1ccccc1)c1ccccc1` [III-027] the same measures were 13 nM and 19 nM.
Taken in the same sequence, the figures for `CCN1C(=O)c2c(O)c(=O)c(C(=O)O)cn2C(C(c2ccccc2)c2ccccc2)N1CC` (stereo not shown) [Compound I-007] were 138 nM and 65 nM.
For `CC(C)N1CN(C2c3ccccc3C3C(c4ccccc42)C3(F)F)n2cc(C(=O)O)c(=O)c(O)c2C1=O` (single isomer, unassigned) [III-010], the EC50 turned out to be 10 nM in experiment [1] (setting [5]) and 9.9 nM in experiment [2] (setting [6]).
Taken in the same sequence, the figures for `O=C(O)c1cn2c(c(O)c1=O)C(=O)N(Cc1ccccc1)CC2Cc1ccccc1` (stereo not shown) [Compound I-051] were 739 nM and 722 nM.
For `O=C(O)c1cn2c(c(O)c1=O)C(=O)N1CCCCN1C2C(c1ccccc1)c1ccccc1` (stereo not shown) [Compound I-043] the same measures were 281 nM and 119 nM.
As to `COc1ccc(CN2CN(C3c4ccccc4CCc4ccccc43)n3cc(C(=O)O)c(=O)c(O)c3C2=O)cc1` [III-008], the EC50 was found to be 14 nM in experiment [1] (setting [5]) and 19 nM in experiment [2] (setting [6]).
Taken in the same sequence, the figures for `O=C(O)c1cn2c(c(O)c1=O)C(=O)N(Cc1ccccc1)C[C@@H]2C(c1ccccc1)c1ccccc1` [Compound I-041] were 180 nM and 6.2 nM.
For `CC(C)OCCN1C[C@H](C(c2ccccc2)c2ccccc2)n2cc(C(=O)O)c(=O)c(O)c2C1=O` [Compound I-035] the same measures were 71 nM and < 6 nM.
For `CCCN1C[C@H](C(c2ccccc2)c2ccccc2)n2cc(C(=O)O)c(=O)c(O)c2C1=O` [Compound I-032], the EC50 in experiment [1] (setting [5]) was determined as 64 nM; in experiment [2] (setting [6]) it was 18 nM.
Taken in the same sequence, the figures for `CC(C)N1CN(C2c3ccccc3Oc3ccccc32)n2cc(C(=O)O)c(=O)c(O)c2C1=O` [III-001] were 110 nM and 19 nM.

The values are drawn from US12098151B2 (priority 2018, dated 2024).
